From patent US20150335637A1, “COMPOSITIONS AND METHODS FOR TREATING CUTANEOUS T CELL LYMPHOMA” (THE TRUSTEES OF THE UNIVERSITY OF PENNSYLVANIA, priority 2013, published 2015)

Test system: cutaneous T-cell lymphoma (CTCL) lesions
Assay: Phase I open label trial of resiquimod gel, clinical response of skin lesions
Assay type: in vivo, human
Protocol: The final trial design calls for a total of 16-20 patients, with the first half cohort treated topically with 0.06% gel and the second half cohort treated topically with 0.03% gel.
According to the study design, treatment of only four to five target lesions is permitted for eight weeks; followed by four weeks of rest and another eight weeks of therapy. Final evaluation is conducted after four weeks off of therapy.

## CCOCc1nc2c(N)nc3ccccc3c2n1CC(C)(C)O [resiquimod, 4-amino-α,α-dimethyl-2-ethoxymethyl-1H-imidazo[4,5-c]quinolin-1-ethanol]
Patient refractory to previous treatments, before application vs end of week 8
  skin lesions of one patient (FIG. 1): clears the treated lesions and induces resolution of distant lesions
Refractory early stage CTCL patients
  clinical response rates for treated and untreated lesions: high clinical response rates of both treated as well as distant, non-treated lesions
